The text below walks through data of patent US11857550B2, “Benzathine analogs” (University of Pittsburgh—Of the Commonwealth System of …, priority 2012, dated 2024).

The structures appear in SMILES notation.

The test concerns C57BL6 mice. It counts as in vivo. Particulars: 30 ug/ml in drinking water, day 5.

`c1ccc(-c2ccc(CNCCNCc3ccc(-c4ccccn4)cc3)cc2)nc1` [BC-1215]: the lung resistance entry is on record as “decreased lung resistance”.
